Entries after “also recorded” stand apart in the source; their conditions may differ. Where two headings read alike, the source gives them in different places. Bounds are passed on as bounds.

Assay [1] has as its system IEC-6, MCF-10A, Swiss 3t3 versus A-549. Briefly: Tumor cell selectivity, non-tumor cell lines versus NSCLC cells. Type of assay: cell-based. As to conditions: for Mean tumor selectivity: mean IC50 in non-tumor cell lines versus NSCLC cells. On the procedure: This assessment of the growth inhibitory activity of the compounds was tested in quadruplicate at a maximum concentration of 25 μM, followed by 10 serially diluted concentrations.
As indicated in Fig 7 and Table 4, compound 7e inhibited growth in both normal and tumor cell lines >50%.

In assay [2] the test system is phosphorylated tyrosine (p-Tyr) in A549 cells. Kind of assay: Total cellular tyrosine phosphorylation after serum stimulation (immunofluorescent imaging). Particulars: for Change in p-Tyr levels: A549, serum stimulated; for IC50: A549, 10 min 10% fetal bovine serum, apparent IC50 of an increase for 7e, of a decrease for sunitinib, read-out: IC50 for change in total tyrosine phosphorylation (p-Tyr) levels. Type of assay: cell-based, human. On the procedure: Furthermore, compound 7e was analyzed for its effect on total cellular levels of phosphorylated tyrosine (p-Tyr) residues in human cancer cells. These studies were carried out using cells derived from lung adenocarcinoma (A549) and immunofluorescent imaging. The ability of the test compound 7e to affect acute serum stimulation of tyrosine phosphorylation was tested over a range of concentrations from less than 100 nM to 50 μM.
Cells were stimulated for 10 min with 10% fetal bovine serum. Phosphotyrosine levels were determined by indirect immunofluorescence followed by automated image acquisition and analysis.

Assay [3] relates to NCI-H69AR. Briefly: Growth inhibition in multidrug resistant lung cancer cell line. Type of assay: cell-based. As to conditions: 72 h, maximum 25 μM. On the procedure:
Compound 7e was analyzed for cancer cell growth inhibitory activity in a sensitive NSCLC cell line (A549) and a multidrug resistant lung cancer cell line (NCI-H69AR) which expresses the ABCC1 efflux pump protein. This assessment of activity tested compounds in quadruplicate at a maximum concentration of 25 μM, followed by 10 serially diluted concentrations.
A549 and H69AR cells were harvested from 90-95% confluent 10 cm dishes, and diluted in growth media. An appropriate concentration of cells was prepared to add 1,250 cells in a volume of 25 µL per well in tissue culture treated BD 384-well microplates, then incubated overnight at 37 °C.
Compound 7e was diluted to a concentration of 25 µM in DMSO. Concentrated dosing solutions (double the final concentration) were prepared by dilution of the DMSO stocks 1:500 in growth medium. Two-fold serial dilutions were then prepared in medium containing 0.2% DMSO to maintain a constant concentration of vehicle throughout the concentration range of the compound. Each of these was added in equal volume (25 µL), to four wells on each cell assay plate, along with the vehicle control. The highest concentration for serial dilution of the positive control compound sunitinib was prepared exactly as the experimental compound 7e. Cells were incubated at 37°C with the compounds for a further 72 h. At the end of the treatment period, assay plates were allowed to cool to RT for 10 min prior to addition of 25 µL per well Promega CellTiterGlo reagent, followed by an additional 10 min incubation at RT. The resulting luminescence was quantitated using a Molecular Devices Spectramax Paradigm.
Percent growth inhibition was calculated using equation (1). The potency of compounds was determined using the non-linear dose response algorithm (four-parameter logistic fit) with GraphPad Prism 5 software.

For assay [4], the system named is A549. Briefly: Cell cycle effects and total cell number (DAPI imaging). Type of assay: cell-based, human. Particulars: for Cell cycle effects: A549; for IC50: Homo sapiens. On the procedure:
Compound 7e was analyzed for effects on various aspects of cell cycle progression in human cancer cells. These studies were carried out using cells derived from lung adenocarcinoma (A549). This follow-up assessment of activity tested compounds used immunofluorescent imaging of phosphorylated Rb protein and the total DNA content of each cell to determine the cell cycle phase. The ability of the test compounds to affect the cell cycle and Rb phosphorylation was tested over a range of concentrations from less than 100 nM to 50 μM.
Fig 5 Dose-dependent changes in cell cycle. Distribution of cells within the cell cycle as well as total cell numbers were quantitated by fluorescent staining of nuclear DNA with DAPI. Phosphorylated Rb protein was detected by indirect immunofluorescence followed by automated image acquisition and analysis. […] All IC50 values are given under one unlabelled substance, with the y-axis title of each plot written in front as the measure.
A549 cells were harvested from a 90% confluent 10 cm dish and diluted in growth medium. An appropriate concentration of cells were prepared to add 5,000 cells in a volume of 100 µL per well in tissue culture treated PerkinElmer optical bottom ViewPlate microplates, then incubated overnight at 37°C. The following day, compound 7e and the positive control, sunitinib, were diluted in DMSO to concentrations 1000-fold above the maximum tested concentration.
Concentrated dosing solutions of twice the final concentration were prepared by dilution of the DMSO stocks 1:500 in growth media. Three-fold dilutions of each dosing medium were then prepared in medium containing 0.2% DMSO to maintain a constant concentration of vehicle throughout the concentration range of each compound. Each of these was added in equal volume (100 µL) to each well on the assay plate, along with the vehicle control. One plate of cells was incubated with the compounds for a further 24 h, and a separate plate was incubated with the compounds for 48 h.
DAPI (1 µg/mL) fluorescent dye was incubated with fixed cells to quantitate double stranded DNA within each cell nucleus to determine cell cycle distribution. DNA content in each cell was determined by total DAPI fluorescent intensity by high throughput image acquisition and analysis. Fluorescent intensities were plotted on histograms with threshold intensity values assigned to each cell cycle classification using the MetaXpress cell cycle analysis program. Results from each treatment were reported as average cell number in each of nine fields, as well as the percentage of cells within each phase of the cell cycle. Each of these parameters was analyzed using GraphPad Prism, and, where appropriate, IC50 values have been reported.

[5] abbreviates: A549, 24 h, read-out: IC50 for reductions in the total cell number.
Setting [6] is: A549, 48 h, read-out: IC50 for reductions in the total cell number.

`O=C1Nc2ccc(Br)cc2C1=NN=C1C(=O)N(Cc2ccccc2)c2ccccc21` [Compound 7e, 1-Benzyl-3-((5-bromo-2-oxoindolin-3-ylidene)hydrazono)indolin-2-one]: the Mean tumor selectivity in assay [1] was 1.7. The “Growth inhibition in both normal and tumor cell lines” value in assay [1] (up to 25 μM) is on record as > 50%. For the same compound, in assay [2], the “Change in p-Tyr levels” value was “nearly two-fold”. The IC50 came out at 3.8 µM in assay [2] (Homo sapiens, A549, 10 min); 12.7 µM in assay [3]; 12.7 µM in assay [3] (NCI-H69AR); 6.26 µM in assay [4] (A549, 24 h, read-out: IC50, % G1-Phase cells); 2.67 µM in assay [4] (setting [5]); 5.16 µM in assay [4] (A549, 48 h, read-out: IC50, % G1-Phase cells). Further, the IC50 in assay [4] (setting [6]) stood at 2.36 µM. The Cell cycle effects entry in assay [4] was “decreased the percentage of cells in the G1 phase of the cell cycle with a corresponding increase in the S-phase; also recorded: decrease in the percentage of cells in the G1 phase of the cell cycle with a corresponding increase in the S-phase; also recorded: G1 decreased, S-phase increased”.

On to `CCN(CC)CCNC(=O)c1c(C)[nH]c(/C=C2\C(=O)Nc3ccc(F)cc32)c1C` [Sunitinib, sunitinib, reference compound], for which the Mean tumor selectivity in assay [1] is on record as 1.4. The IC50 in assay [2] is 0.91 µM; in assay [2] (Homo sapiens, A549, 10 min), 0.9 µM; in assay [3] it was 5.8 µM; in assay [3] (NCI-H69AR), 5.83 µM; in assay [4] (setting [5]), 12.5 µM; in assay [4] (setting [6]), 3.48 µM. Moreover, the “Change in p-Tyr levels” value in assay [2] is recorded as “modest dose-dependent decrease”. Further, the Cell cycle effects result in assay [4] was “G1 decreased and G2/M-phases increased”.

Source of the values: paper PMC5526551, “New hydrazonoindolin-2-ones: Synthesis, exploration of the possible anti-proliferative mechanism of action and encapsulation into PLGA microspheres” (PLoS ONE, 2017).
